Reference: US12540128B2, “Substituted pyridazinones as herbicides” (SYNGENTA CROP PROTECTION AG, priority 2019, dated 2026)

Experiments:
Format in all cases: in vivo
Settings in all cases: 250 g/ha, after 13 days
[1] = test system: Ipomoea hederacea (IPOHE); experiment: B2 Post-Emergence Efficacy Test 2
Procedure: (§1) Seeds of a variety of test species are sown in standard soil in pots:— Amaranthus retoflexus (AMARE), Setaria faberi (SETFA), Echinochloa crus-galli (ECHCG), Ipomoea hederacea (IPOHE), Zea Mays (ZEAMX), Abutilon theophrasti (ABUTH). After 8 days cultivation (post-emergence) under controlled conditions in a glasshouse (at 24/16° C., day/night; 14 hours light; 65% humidity), the plants are sprayed with an aqueous spray solution derived from the formulation of the technical active ingredient in acetone/water (50:50) solution containing 0.5% Tween 20 (polyoxyethylene sorbitan monolaurate, CAS RN 9005-64-5). Compounds are applied at 250 g/ha. The test plants are then grown in a glasshouse under controlled conditions in a glasshouse (at 24/16° C., day/night; 14 hours light; 65% humidity) and watered twice daily. After 13 days, the test is evaluated for the percentage damage caused to the plant. The biological activities are assessed on a five point scale (5=80-100%; 4=60-79%; 3=40-59%; 2=20-39%; 1=0-19%). A blank value in the table is indicative that the compound was not tested on that species.

Zea Mays (ZEAMX) [2] = experiment: B2 Post-Emergence Efficacy Test 2
Procedure: as §1

[3] = test system: Amaranthus retoflexus (AMARE); experiment: B2 Post-Emergence Efficacy Test 2
Procedure: as §1

Setaria faberi (SETFA) [4] = experiment: B2 Post-Emergence Efficacy Test 2
Procedure: as §1

[5] = test system: Abutilon theophrasti (ABUTH); experiment: B2 Post-Emergence Efficacy Test 2
Procedure: as §1

[6] = test system: Echinochloa crus-galli (ECHCG); experiment: B2 Post-Emergence Efficacy Test 2
Procedure: as §1

[7] = test system: Ipomoea hederacea (IPOHE); experiment: B4 Pre-Emergence Efficacy Test 2
Procedure: (§2) Seeds of a variety of test species were sown in standard soil in pots: Amaranthus retoflexus (AMARE), Setaria faberi (SETFA), Echinochloa crus-galli (ECHCG), Ipomoea hederacea (IPOHE), Zea Mays (ZEAMX), Abutilon theophrasti (ABUTH). After cultivation for one day (pre-emergence) under controlled conditions in a glasshouse (at 24/16° C., day/night; 14 hours light; 65% humidity), the plants were sprayed with an aqueous spray solution derived from the formulation of the technical active ingredient in acetone/water (50:50) solution containing 0.5% Tween 20 (polyoxyethelyene sorbitan monolaurate, CAS RN 9005-64-5). Compounds are applied at 250 g/ha. The test plants were then grown in a glasshouse under controlled conditions (at 24/16° C., day/night; 14 hours light; 65% humidity) and watered twice daily. After 13 days, the test is evaluated for the percentage damage caused to the plant. The biological activities are assessed on a five point scale (5=80-100%; 4=60-79%; 3=40-59%; 2=20-39%; 1=0-19%). A blank value in the table is indicative that the compound was not tested on that species.

Zea Mays (ZEAMX) [8] = experiment: B4 Pre-Emergence Efficacy Test 2
Procedure: as §2

[9] = test system: Amaranthus retoflexus (AMARE); experiment: B4 Pre-Emergence Efficacy Test 2
Procedure: as §2

Setaria faberi (SETFA) [10] = experiment: B4 Pre-Emergence Efficacy Test 2
Procedure: as §2

[11] = test system: Abutilon theophrasti (ABUTH); experiment: B4 Pre-Emergence Efficacy Test 2
Procedure: as §2

[12] = test system: Echinochloa crus-galli (ECHCG); experiment: B4 Pre-Emergence Efficacy Test 2
Procedure: as §2

SMILES | percentage damage caused to the plant, five point scale, IPOHE [1] | percentage damage caused to the plant, five point scale, ZEAMX (Zea Mays (ZEAMX) [2]) | percentage damage caused to the plant, five point scale, AMARE [3] | percentage damage caused to the plant, five point scale, SETFA (Setaria faberi (SETFA) [4]) | percentage damage caused to the plant, five point scale, ABUTH [5] | percentage damage caused to the plant, five point scale, ECHCG [6] | percentage damage caused to the plant, five point scale, IPOHE [7] | percentage damage caused to the plant, five point scale, ZEAMX (Zea Mays (ZEAMX) [8]) | percentage damage caused to the plant, five point scale, AMARE [9] | percentage damage caused to the plant, five point scale, SETFA (Setaria faberi (SETFA) [10]) | percentage damage caused to the plant, five point scale, ABUTH [11] | percentage damage caused to the plant, five point scale, ECHCG [12]
Cc1nn(C)c(=O)c(-c2c(F)ccc(Cl)c2CCc2ccc3oc(=O)[nH]c3c2)c1O [Compound 1.352] | 3 (3=40-59%) | 3 (3=40-59%) | 4 (4=60-79%) | 4 (4=60-79%) | 4 (4=60-79%) | 4 (4=60-79%) | 3 (3=40-59%) | 4 (4=60-79%) | 5 (5=80-100%) | 5 (5=80-100%) | 4 (4=60-79%) | 3 (3=40-59%)
Cc1nn(C)c(=O)c(-c2c(F)ccc(Cl)c2CCc2ccc3ccccc3c2)c1O [Compound 1.053] | 4 (4=60-79%) | 4 (4=60-79%) | 4 (4=60-79%) | 4 (4=60-79%) | 3 (3=40-59%) | 3 (3=40-59%) | 1 (1=0-19%) | 1 (1=0-19%) | 4 (4=60-79%) | 2 (2=20-39%) | 2 (2=20-39%) | 2 (2=20-39%)
Cc1nn(C)c(=O)c(-c2c(F)ccc(Cl)c2CCc2ccc3c(cnn3C)c2)c1O [Compound 1.354] | 4 (4=60-79%) | 4 (4=60-79%) | 4 (4=60-79%) | 4 (4=60-79%) | 4 (4=60-79%) | 5 (5=80-100%) | 5 (5=80-100%) | 4 (4=60-79%) | 4 (4=60-79%) | 5 (5=80-100%) | 4 (4=60-79%) | 5 (5=80-100%)
Cc1nn(C)c(=O)c(-c2c(F)ccc(Cl)c2/C=C/c2cn3ccnc3cn2)c1O [Compound 2.363] | 2 (2=20-39%) | 0 | 1 (1=0-19%) | 0 | 0 | 0 | 5 (5=80-100%) | 2 (2=20-39%) | 5 (5=80-100%) | 4 (4=60-79%) | 5 (5=80-100%) | 5 (5=80-100%)
Cc1nn(C)c(=O)c(-c2c(F)ccc(Cl)c2CCc2ccc3c(C)noc3c2)c1O [Compound 1.351] | 5 (5=80-100%) | 5 (5=80-100%) | 5 (5=80-100%) | 4 (4=60-79%) | 5 (5=80-100%) | 4 (4=60-79%) | 5 (5=80-100%) | 5 (5=80-100%) | 5 (5=80-100%) | 5 (5=80-100%) | 5 (5=80-100%) | 5 (5=80-100%)
